This passage reports viability results from article PMC12040169 (PLOS Biology, 2025).

Molecules are shown by their SMILES.

This data set is described as follows: in vitro. The conditions noted are these: human, hela cells, % viability.
Broadly, the viability is a read-out of living cells in per cent, often relative to untreated cells. As to `COC(=O)CNC(c1ccccc1)c1cc(Br)ccc1NC(C)=O` (stereo not drawn) [CBK262976], the viability at 28.5 h, 10 µM was found to be 119%.
As to `Cc1ccc(Cn2c(=N)n(CC(=O)c3ccc(Br)cc3)c3ccccc32)cc1` [CBK262979B], the viability at 28.5 h, 10 µM was 94%.
Take `COC(=O)CN1C(CN2CCOCC2)=Nc2ccc(Br)cc2C1c1ccccc1` (stereo not drawn) [CBK262981]: the viability at 28.5 h, 10 µM came to 89.8%.
The result for `COc1ccc(OC)c(N/C=C(/C#N)c2nc(-c3cc4c(ccc5ccccc54)oc3=O)cs2)c1` [CBK262991] reads 109%; that for `COc1ccc(Cl)cc1NC(=O)COc1cccc2ccccc12` [CBK262995], 94.9%; that for `CC(C)(C)c1cc(C(c2ccccc2O)N2CCOCC2)cc(C(C)(C)C)c1O` (stereo not drawn) [CBK262998], 86.4%.
The result for `COc1ccc(/C=N/NC(=O)c2ccc(O)cc2O)cc1COc1cc(C)c(Cl)c(C)c1` [CBK263000] reads 90.3%; that for `N/C(=N\OC(=O)COc1cccc2ccccc12)c1ccc(Cl)cc1` [CBK263004], 88.4%; that for `O=C(COc1cccc2ccccc12)NNC(=O)C1CCCO1` (stereo not drawn) [CBK263007], 89.7%.
With `COc1ccccc1CC(=N)NOC(=O)COc1cccc2ccccc12` [CBK263012] the figure was 94.2%; with `COc1ccc(Cl)cc1N/C=C(/C#N)c1nc(-c2cc3cc([N+](=O)[O-])ccc3oc2=O)cs1` [CBK263014], 102%; with `O=C1C2C3C=CC(C2C(=O)N1CCO)C1C2C(=O)N(CCO)C(=O)C2C31` (stereo not drawn) [CBK263016], 101%.
With `CCC(Sc1nc(C)cc(C)n1)C(=O)N1c2ccccc2Sc2ccccc21` (stereo not drawn) [CBK263018], the viability at 28.5 h, 10 µM was found to be 92.9%.
The result for `O=C(c1cccnc1)N1CCN(Cc2cccc([N+](=O)[O-])c2)CC1` [CBK263020] reads 114%.
On to `CC(=O)C12c3ccccc3C(c3ccccc31)C1C(=O)N(c3ccc(Cl)c(C(=O)O)c3)C(=O)C12` (stereo not drawn) [CBK263021], for which the viability at 28.5 h, 10 µM worked out at 93.8%.
With `CCC12CN3CCN(CC(C3)/C1=N\O)C2` [CBK263022] the figure was 85.9%.
With `O=C(O)c1cc2nc3c(c(C(F)(F)F)n2n1)CCc1ccccc1-3` [CBK263025] the figure was 102%; with `O=C(c1cccnc1)N1CCN(Cc2ccc([N+](=O)[O-])cc2)CC1` [CBK263026], 93.4%; with `CCC(SC1=NCCS1)C(=O)Nc1ccc(S(N)(=O)=O)cc1` (stereo not drawn) [CBK263027], 95.3%.
The result for `CN(C)CC1(O)C2CN3CCN(C2)CC1(c1ccccc1)C3` (stereo not drawn) [CBK263029] reads 97.5%; that for `O=C(O)c1ccc(N2C(=O)C3C4C=CC(C4=C(c4ccccc4)c4ccccc4)C3C2=O)cc1` (stereo not drawn) [CBK263030], 104%.
Turning to `COc1ccc(C(=O)N2CCN(Cc3cc(OC)ccc3OC)CC2)cc1` [CBK263032], the viability at 28.5 h, 10 µM is 88.8%.
As to `CC12CN3CCN(CC(C3)C1(O)CN1CCOCC1)C2` (stereo not drawn) [CBK263033], the viability at 28.5 h, 10 µM turned out to be 103%.
With `CCOC(=O)c1c(NC(=O)Cn2cnc([N+](=O)[O-])n2)sc2c1CCC2` [CBK263042] the figure was 92.5%.
Regarding `Cc1ccc(-c2nc3ncccc3o2)cc1NC(=O)c1ccc(F)cc1` [CBK263043], the viability at 28.5 h, 10 µM is 103%.
The result for `O=C(NCCCN1CCOCC1)c1cnn2c(-c3ccccc3)cc(-c3ccccc3)nc12` [CBK263046] reads 79.9%; that for `CN(C)CCNCCP(=O)(c1ccccc1)c1ccccc1` [CBK263049], 104%; that for `Cc1c(NC(=O)c2ccc([N+](=O)[O-])o2)cccc1-c1nc2ccccc2s1` [CBK263051], 85.6%.
For `Cc1ccc(C(=O)Nc2c(C(=O)N3CCN(Cc4ccccc4)CC3)cnn2-c2ccccc2)cc1` [CBK263053], the viability at 28.5 h, 10 µM came out at 91.1%.
For the compound `CCOC(=O)c1c(NC(=O)Cn2nc([N+](=O)[O-])c(Cl)c2C)sc2c1CCC(C)C2` (stereo not drawn) [CBK263054], the viability at 28.5 h, 10 µM is 94.2%.
